The text below walks through data of patent US20200171132A1, “METHODS OF INHIBITING FUNGAL CERAMIDE SYNTHASE FOR TREATMENT OF CRYPTOCOCCUS NEOFORMANS INFECTION” (The Research Foundation for the State University of New York, priority 2017, published 2020).

The subject of this assay is fungal Cer1 (Cn Cer1). Nature of the assay: High throughput ceramide synthase assay (96-well, NBD-sphingosine, SPE). It counts as biochemical, Cryptococcus neoformans. The settings on record: 1 micromolar; wells contained 10 compounds each; 1 hour at 37° C. The procedure: The compounds were first diluted to 1 mM each (1:10 dilution with 10% DMSO) with a physiological buffer (YNB medium buffered with HEPES at pH 7.4 containing 2% glucose) and subsequently diluted to 300 μM (1:3.3 dilution) with the same medium (3% DMSO). A 100-μl aliquot of this solution was placed into each well of a 96-well master plate and stored at −20° C. until use. Each well in the screening master plates contained 10 compounds at 1 μM each. The ceramide synthase reaction was performed in a 96-well plate format using fungal Cer1 (Cn Cer1) or human ceramide synthase (Hu-Cer1, -Cer2, -Cer3, -Cer4, -Cer5, or -Cer6) enzyme, containing NBD-Sphingosine (NBD-Sph) (Avanti Polar Lipids) and 18:0 Coenzyme A (Stearoyl Coenzyme A, Avanti Polar Lipids) as substrates using the following concentrations: 10 μM NBD-Sph and 50 μM fatty acid CoA. The reaction mixture was prepared in HEPES buffer (20 mM HEPES, pH 7.2, 25 mM KCl, 250 mM sucrose, and 2 mM MgCl2). Library compounds were added and plate incubated for 1 hour at 37 C. The lipid product (NBD-ceramide) was separated using solid phase extraction (SPE) column chromatography using Strata® C18-E, 96 well plates (Phenomenex). Reaction product was measured using a plate reader.
The Cn Cer1 enzyme is expressed using the pYES-GAL1 galactose inducible system in Saccharomyces cerevisiae whereas the mammalian ceramide synthases (Cer1-6) are induced with tetracycline using the Tet-On System in HCT-116 cells under the control of Geneticin and Blasticidin. Cn Cer1 or Hu Cer1-6 enzymes were extracted using the tag system and enriched in microsomal preparation. Before using the enzymes in the plate screening, each preparation was tested for ceramide activity using the TLC assay illustrated in FIG. 11, to make sure the ceramide synthase activity works as expected. Appropriate negative controls (e.g. Cn Cer1 on glucose or Hu Cer1 in absence of tetracycline) were included in each plate during the screening.
The ceramide synthase assay was performed using NBD-Sphingosine (NBD-Sph) (Avanti polar lipids) and 18:0 Coenzyme A (Stearoyl Coenzyme A, Avanti polar lipids) as substrates using the following concentrations: 10 μM NBD-Sph and 50 μM fatty acid CoA. Enzyme(s)—ceramide synthases—were prepared using microsome purification of the yeasts or mammalian expression system. For yeast, the S. cerevisiae strain BY4741 expressing C. neoformans ceramide synthase 1 using the pYES GAL1 expression system was grown in 200 ml of liquid YNB 2% galactose medium for 16 hours. The same strain grown in the same medium but containing 2% glucose was used as a negative control because the Cn Cer1 gene is under the control of the galactose promoter (GAL1). Cells were then harvested by centrifugation, resuspended in 2 ml of Lysis Buffer (20 mM HEPES/KOH, pH 7.4, 25 mM KCl, 2 mM MgCl2, 250 mM sorbitol) and 50 μl of proteinase inhibitor mixture (Sigma-Aldrich)/g of cells, and broken by bead-bashing at 4° C. for 1.5 h. Cell debris were removed by centrifuging at 1000 g at 4° C. for 10 min. The supernatant was loaded on a 60% (w/w) sucrose cushion and centrifuged at 100,000 g for 1 h. The microsomes were collected from the interphase, snap frozen in liquid nitrogen, and stored at −80° C. until use.
The high throughput assays were adapted from the Avanti Ceramide synthase assay kit (https://avantilipids.com/product/640011/). The reactions were first downsized to 20 μl in a 96-well plate format using human ceramide synthases (Cer1, […], Cer3, Cer4, Cer5, or Cer6) along with Cn Cer1. Lipid product (NBD-ceramide) was separated using solid phase extraction (SPE) column chromatography using Strata® C18-E, 96 well plates (Phenomenex). The reaction product was measured using a plate reader, as in FIG. 12. The Z′ score of the assay is 0.80194, which is considered excellent (FIG. 12).
An initial screening yielded compounds 1-10 (Table 3). […]
Regarding `CC(C)Nc1cc(-c2ccc3c(c2)OCO3)nc(N)n1` [Compound 1], the “% reduction in activity (inhibition of Cn Cer1 synthse activity)” value is 94.43%. `OCc1cc(-c2ccc3ccccc3n2)ccc1F` [Compound 2]: the “% reduction in activity (inhibition of Cn Cer1 synthse activity)” value came out at 94.43%.

Turning to `C=CCc1cc(-c2[nH]cnc2-c2ccccc2)cc(OC)c1O` [Compound 3], the “% reduction in activity (inhibition of Cn Cer1 synthse activity)” value is 94.43%.

As to `Cc1ccsc1C(=O)N1CCN2C(=O)CNC(=O)C2C1` (centres unmarked) [Compound 4], the “% reduction in activity (inhibition of Cn Cer1 synthse activity)” value was found to be 94.43%. On to `Cn1ccnc1CN(Cc1cc2ccccc2o1)C1CC1` [Compound 5], for which the “% reduction in activity (inhibition of Cn Cer1 synthse activity)” value was found to be 94.43%. On to `CCN(C/C=C/c1ccccc1)C(=O)c1cc2cccnc2nc1C` [Compound 6], for which the “% reduction in activity (inhibition of Cn Cer1 synthse activity)” value is 94.43%. To `CCN(CC1CCCCO1)C(=O)c1cccc(-n2cnnc2)c1` (centres unmarked) [Compound 7] belongs 94.43%.

With `CC(C)CN1CC(C(=O)NCc2nncn2C2CCCCC2)CC1=O` (centres unmarked) [Compound 8], the “% reduction in activity (inhibition of Cn Cer1 synthse activity)” value worked out at 94.43%. In the case of `CC(Cn1ccc2ccccc21)NC(=O)c1ccc(-n2cnnc2)cc1` (centres unmarked) [Compound 9] it was 94.43%; in that of `CCN(C/C=C/c1ccccc1)C(=O)c1ccc(-n2cnnc2)cc1` [Compound 10], 94.43%. As to `Cc1ccc(F)cc1NC(=O)N1CCOC2(CNCCOC2)C1` (centres unmarked) [Compound 11], the “% reduction in activity (inhibition of Cn Cer1 synthse activity)” value amounted to 87.67%. Consider `c1cncc(COC2CCN(Cc3ccc(-c4cc[nH]n4)s3)CC2)c1` [Compound 12], for which the “% reduction in activity (inhibition of Cn Cer1 synthse activity)” value was determined as 87.67%. As for `CN1CC2(CCCN(C(=O)c3ccc4c(c3)OCCN4C)CC2)OC1=O` (centres unmarked) [Compound 13], the “% reduction in activity (inhibition of Cn Cer1 synthse activity)” value came out at 87.67%. Regarding `CN(Cc1cc2cc(F)ccc2[nH]1)C(=O)c1ccccc1C1CCNC1` (centres unmarked) [Compound 14], the “% reduction in activity (inhibition of Cn Cer1 synthse activity)” value amounted to 87.67%. As to `CCn1c(C2CCN(C(=O)C(N)CC3CCCC3)CC2)nn(C)c1=O` (centres unmarked) [Compound 15], the “% reduction in activity (inhibition of Cn Cer1 synthse activity)” value worked out at 87.67%. To `Cc1nc[nH]c1-c1nccn1C(C)c1cccs1` (centres unmarked) [Compound 16] belongs 87.67%; to `Clc1cccc2ccc(CN3CCn4cncc4C3)nc12` [Compound 17], 87.67%. As for `COc1cccc2c1OCCCN(C(=O)c1cn3c(n1)CNCC3)C2` [Compound 18], the “% reduction in activity (inhibition of Cn Cer1 synthse activity)” value worked out at 87.67%. As for `FC(F)(F)C1CCN(Cc2cc3n(n2)CCNC3)CC1` [Compound 19], the “% reduction in activity (inhibition of Cn Cer1 synthse activity)” value stood at 87.67%. In the case of `Fc1cccc(CN2CCN(Cc3cnc(NCC4CCCO4)nc3)CC2)c1` (centres unmarked) [Compound 20], the “% reduction in activity (inhibition of Cn Cer1 synthse activity)” value was found to be 87.67%. Take `CCCCN(Cc1ccco1)C(=O)c1cc(C)[nH]c(=O)c1` [Compound 21]: the “% reduction in activity (inhibition of Cn Cer1 synthse activity)” value is 86.1%. In the case of `O=C(NCCC1=CCCN(CCCF)C1)c1cccs1` [Compound 22], the “% reduction in activity (inhibition of Cn Cer1 synthse activity)” value is recorded as 86.1%. For `CCN(Cc1ccc(-n2cccn2)cc1)CC1CCOCC1` [Compound 23], the “% reduction in activity (inhibition of Cn Cer1 synthse activity)” value came out at 86.1%. To `O=C(NCC1(Cn2cccn2)CC1)c1ccccc1N1CCOCC1` [Compound 24] belongs 86.1%.

Consider `C/C(=C\c1ccccc1)CN1CCC(CN)C1` (centres unmarked) [Compound 25], for which the “% reduction in activity (inhibition of Cn Cer1 synthse activity)” value amounted to 86.1%.

With `CCC[C@@H]1C[C@H](NC(C)=O)C[C@H](C2CCCCC2)O1` [Compound 26], the “% reduction in activity (inhibition of Cn Cer1 synthse activity)” value was 86.1%.

For the molecule `CCc1ncc(C(=O)N2CCN(CC(C)C)C(=O)C2C)cn1` (centres unmarked) [Compound 27], the “% reduction in activity (inhibition of Cn Cer1 synthse activity)” value amounted to 86.1%. As to `COc1cc(F)c(C2CC(=O)Nc3cc(N4CCNC4=O)ccc32)cc1OC` (centres unmarked) [Compound 28], the “% reduction in activity (inhibition of Cn Cer1 synthse activity)” value came to 86.1%. Turning to `Cc1cc2c(cc1O)NC(=O)CC2c1c[nH]nc1-c1ccc(F)cc1` (centres unmarked) [Compound 29], the “% reduction in activity (inhibition of Cn Cer1 synthse activity)” value was found to be 86.1%. Turning to `Cc1nc(CC(=O)NCCSc2nnc(C)s2)cs1` [Compound 30], the “% reduction in activity (inhibition of Cn Cer1 synthse activity)” value was 86.1%. For `O=C1NCC2(CCCN(c3ncnc4[nH]ccc34)CC2)O1` (centres unmarked) [Compound 31], the “% reduction in activity (inhibition of Cn Cer1 synthse activity)” value came to 85.73%. Consider `O=C1NCC2(CCCN(c3nnnn3-c3ccccc3)CC2)O1` (centres unmarked) [Compound 32], for which the “% reduction in activity (inhibition of Cn Cer1 synthse activity)” value came to 85.73%. In the case of `Cc1nc(C(C)C)ncc1C(=O)N(C)Cc1snnc1C` [Compound 33], the “% reduction in activity (inhibition of Cn Cer1 synthse activity)” value is on record as 85.73%. On to `CCn1c(C2CCN(C(=O)C(C)n3cncn3)CC2)nn(C)c1=O` (centres unmarked) [Compound 34], for which the “% reduction in activity (inhibition of Cn Cer1 synthse activity)” value was 85.73%. To `CCSc1nc(CC(=O)N2[C@@H]3CC[C@H]2C[C@@H](O)C3)cs1` [Compound 35] belongs 85.73%; to `Cc1noc(C)c1-n1c(CCCN2CCOCC2)n[nH]c1=O` [Compound 36], 85.73%; to `CC(C)Cc1n[nH]c(Cn2nc(Cc3ccccc3)c3ccccc3c2=O)n1` [Compound 37], 85.73%. In the case of `Cc1cc(C)n2nc(C(=O)N3CCC4(CN(C)C(=O)O4)C3)cc2n1` (centres unmarked) [Compound 38] it was 85.73%.

For the molecule `CN(C)CC1COCCN(Cc2c(-c3ccccc3)nc3ncccn23)C1` (centres unmarked) [Compound 39], the “% reduction in activity (inhibition of Cn Cer1 synthse activity)” value amounted to 85.73%. Consider `NC(=O)c1cccc(CC2CCN(C(=O)CCn3ccccc3=O)C2)c1` (centres unmarked) [Compound 40], for which the “% reduction in activity (inhibition of Cn Cer1 synthse activity)” value was 85.73%. `O=C(Nc1cccnc1)c1ccc(-c2cccc3cccnc23)o1` [Compound 41]: the “% reduction in activity (inhibition of Cn Cer1 synthse activity)” value was determined as 84.91%. As to `CN1CCC2(CC1)CCN(C(=O)c1cccc(Oc3ncccn3)c1)C2` [Compound 42], the “% reduction in activity (inhibition of Cn Cer1 synthse activity)” value is 84.91%.

As for `CC(=O)N(C)CC1=CCCN(Cc2cc(F)c(F)cc2F)C1` [Compound 43], the “% reduction in activity (inhibition of Cn Cer1 synthse activity)” value is 84.91%. Turning to `O=C1NCC(=O)N2CCN(C(=O)c3cccc4c3NCCC4)CC12` (centres unmarked) [Compound 44], the “% reduction in activity (inhibition of Cn Cer1 synthse activity)” value was 84.91%.

As to `CC(=O)N(CCc1ccc(F)cc1)CC1=CCCN(CCO)C1` [Compound 45], the “% reduction in activity (inhibition of Cn Cer1 synthse activity)” value was determined as 84.91%. As to `CNc1ncc(CN(C)C(=O)c2cnn[nH]2)cn1` [Compound 46], the “% reduction in activity (inhibition of Cn Cer1 synthse activity)” value is on record as 84.91%. In the case of `Cc1cc2[nH]c(CN3CCCC3c3nc4cc(F)ccc4[nH]3)cc(=O)n2n1` (centres unmarked) [Compound 47] it was 84.91%; in that of `O=C(c1cnn[nH]1)N1CCC(Oc2ncccn2)CC1` [Compound 48], 84.91%.

On to `Cc1ccccc1-n1cc(CN(C)C(=O)c2ccccc2C2CCNC2)cn1` (centres unmarked) [Compound 49], for which the “% reduction in activity (inhibition of Cn Cer1 synthse activity)” value came to 84.91%. For `CCc1nc(C)sc1CNc1nc(-c2cccnc2)nc2c1cnn2C` [Compound 50], the “% reduction in activity (inhibition of Cn Cer1 synthse activity)” value is reported as 84.91%.
